One assay deals with T1, JAK3 (Homo sapiens, UniProt P52333).
T1 sequence (P52333 1-1124): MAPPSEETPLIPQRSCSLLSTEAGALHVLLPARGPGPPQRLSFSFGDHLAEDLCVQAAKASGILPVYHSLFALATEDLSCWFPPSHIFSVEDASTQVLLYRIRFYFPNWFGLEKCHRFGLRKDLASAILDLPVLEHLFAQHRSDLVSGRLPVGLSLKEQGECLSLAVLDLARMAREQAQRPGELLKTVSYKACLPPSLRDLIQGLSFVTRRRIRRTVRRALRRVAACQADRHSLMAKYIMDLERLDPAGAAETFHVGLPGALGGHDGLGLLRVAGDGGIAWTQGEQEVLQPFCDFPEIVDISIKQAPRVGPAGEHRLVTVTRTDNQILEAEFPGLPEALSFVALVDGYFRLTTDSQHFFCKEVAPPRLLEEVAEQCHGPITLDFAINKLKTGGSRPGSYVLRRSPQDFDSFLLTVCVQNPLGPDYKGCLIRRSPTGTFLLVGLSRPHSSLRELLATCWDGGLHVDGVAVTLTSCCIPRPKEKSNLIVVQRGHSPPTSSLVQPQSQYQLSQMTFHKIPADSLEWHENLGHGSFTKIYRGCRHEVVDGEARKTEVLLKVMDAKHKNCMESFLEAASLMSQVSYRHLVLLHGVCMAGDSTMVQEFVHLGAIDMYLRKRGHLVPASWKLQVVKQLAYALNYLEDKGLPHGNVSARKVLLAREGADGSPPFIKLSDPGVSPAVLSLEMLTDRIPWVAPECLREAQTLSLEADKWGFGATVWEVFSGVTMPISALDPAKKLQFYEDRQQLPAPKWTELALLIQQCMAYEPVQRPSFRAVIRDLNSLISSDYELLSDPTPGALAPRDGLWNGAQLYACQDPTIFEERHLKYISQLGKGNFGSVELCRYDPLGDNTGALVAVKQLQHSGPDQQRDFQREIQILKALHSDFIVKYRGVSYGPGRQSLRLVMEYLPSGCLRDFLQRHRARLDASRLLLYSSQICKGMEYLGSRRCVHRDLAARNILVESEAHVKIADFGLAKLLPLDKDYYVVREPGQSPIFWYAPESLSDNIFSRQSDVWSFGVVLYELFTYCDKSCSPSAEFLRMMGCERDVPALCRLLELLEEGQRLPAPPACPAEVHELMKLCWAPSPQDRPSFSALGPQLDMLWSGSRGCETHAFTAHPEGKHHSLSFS
Nature of the assay: Inhibition of a panel of kinases, in vitro HotSpot kinase assay: JAK3. In kind it is biochemical. Conditions: D-compounds panel data; 1 μM ATP; read-out: IC50 JAK3.

In the next assay the target is T2, BTK-WT (Homo sapiens, UniProt Q06187).
T2 construct: purified from insect cells as a full-length construct containing an N-terminal 6X-His tag; His6 (N); made in house; host or cells: insect cells (baculovirus Sf21 in Method B)
T2 sequence (Q06187 whole entry): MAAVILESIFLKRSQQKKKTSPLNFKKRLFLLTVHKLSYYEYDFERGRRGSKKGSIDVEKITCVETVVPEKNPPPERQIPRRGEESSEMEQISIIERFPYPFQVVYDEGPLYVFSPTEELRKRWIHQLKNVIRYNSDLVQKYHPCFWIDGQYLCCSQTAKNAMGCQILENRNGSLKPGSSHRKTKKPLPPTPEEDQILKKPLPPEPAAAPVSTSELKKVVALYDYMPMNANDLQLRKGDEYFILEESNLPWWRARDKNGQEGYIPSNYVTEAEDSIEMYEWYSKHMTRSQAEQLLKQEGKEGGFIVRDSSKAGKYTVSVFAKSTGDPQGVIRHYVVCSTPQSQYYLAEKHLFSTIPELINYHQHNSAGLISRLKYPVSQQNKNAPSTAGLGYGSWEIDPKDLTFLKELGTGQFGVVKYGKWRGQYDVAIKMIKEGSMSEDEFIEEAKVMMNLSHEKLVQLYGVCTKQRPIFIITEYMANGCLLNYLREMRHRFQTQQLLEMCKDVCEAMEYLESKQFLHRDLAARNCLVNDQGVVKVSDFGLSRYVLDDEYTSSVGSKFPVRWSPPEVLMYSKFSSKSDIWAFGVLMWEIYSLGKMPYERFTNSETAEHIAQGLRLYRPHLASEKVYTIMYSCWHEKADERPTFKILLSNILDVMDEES
The experiment in a line: Btk in vitro inhibitory activity (one of Method A TR-FRET, Method B electrophoretic mobility shift, Method C radiometric filter binding). In kind it is biochemical. Conditions: D-compounds panel data; read-out: IC50 BTK-WT. For orientation: In EMSA bound probe runs differently from free probe, usually more slowly.

We go through 20 compounds from patent US20210070748A1, “INHIBITORS OF BRUTONS TYROSINE KINASE” (Pharmacyclics LLC, priority 2015, published 2021).

The structures appear in SMILES notation.

One may read the IC50 as the concentration that inhibits the measured activity by half. Regarding `C[C@H]1CC[C@@H](NC(=O)N(C)C)CN1c1cnc(C(N)=O)c(Nc2cnn(C)c2)n1` [Example D-152, 5-[(2S,5R)-5-[(dimethylcarbamoyl)amino]-2-methylpiperidin-1-yl]-3-[(1-methyl-1H-pyrazol-4-yl)amino]pyrazine-2-carboxamide], the IC50 on JAK3 lay in the range of 1000 to 10000 nM; on BTK-WT it was 10 to 100 nM.
Turning to `C[C@@H]1[C@H](NC(=O)N(C)C)CCCN1c1cnc(C(N)=O)c(Nc2ccc3cccnc3c2)n1` [Example D-121, 5-[(2R,3R)-3-[(dimethylcarbamoyl)amino]-2-methylpiperidin-1-yl]-3-[(quinolin-7-yl)amino]pyrazine-2-carboxamide], the IC50 at JAK3 was 1000 to 10000 nM; at BTK-WT, 10 to 100 nM.
`CC(C)n1cc(Nc2nc(N3CCC[C@@H](NC(=O)c4ccc(C5CC5)cc4F)[C@H]3C)cnc2C(N)=O)cn1` [Example D-123, 5-[(2R,3R)-3-(4-cyclopropyl-2-fluorobenzamido)-2-methylpiperidin-1-yl]-3-{[1-(propan-2-yl)-1H-pyrazol-4-yl]amino}pyrazine-2-carboxamide]: the results for the IC50 at JAK3 and on BTK-WT were above 10000 nM and at most 10 nM, respectively.
With `CC(C)N1CCN(c2ccc(Nc3nc(N4CCC[C@@H](NC(=O)c5ccc(C6CC6)cc5F)[C@H]4C)cnc3C(N)=O)cc2)CC1` [Example D-7, 5-[(2R,3R)-3-(4-cyclopropyl-2-fluorobenzamido)-2-methylpiperidin-1-yl]-3-({4-[4-(propan-2-yl)piperazin-1-yl]phenyl}amino)pyrazine-2-carboxamide], the IC50 was 1000 to 10000 nM on JAK3 and at most 10 nM at BTK-WT.
On to `C[C@@H]1[C@H](NC(=O)N(C)C)CCCN1c1cnc(C(N)=O)c(Nc2ccc(CN3CCN(C)CC3)cc2)c1` [Example D-120, 5-[(2R,3R)-3-[(dimethylcarbamoyl)amino]-2-methylpiperidin-1-yl]-3-({4-[(4-methylpiperazin-1-yl)methyl]phenyl}amino)pyridine-2-carboxamide], for which the values for the IC50 on JAK3 and on BTK-WT were 1000 to 10000 nM and 100 to 1000 nM, respectively.
As to `C[C@@H]1[C@H](NC(=O)c2ccc(C3CC3)cc2F)CCCN1c1cnc(C(N)=O)c(Nc2ccc(N3CCN(C)CC3=O)cc2)n1` [Example D-10, 5-[(2R,3R)-3-(4-cyclopropyl-2-fluorobenzamido)-2-methylpiperidin-1-yl]-3-{[4-(4-methyl-2-oxopiperazin-1-yl)phenyl]amino}pyrazine-2-carboxamide], the IC50 is 1000 to 10000 nM on JAK3 and at most 10 nM on BTK-WT.
With `Cc1cc(Nc2nc(N3CCC[C@@H](n4ccc5cc(C6CC6)ccc5c4=O)C3)cnc2C(N)=O)sn1` [Example D-166, 5-[(3R)-3-(6-cyclopropyl-1-oxo-1,2-dihydroisoquinolin-2-yl)piperidin-1-yl]-3-[(3-methyl-1,2-thiazol-5-yl)amino]pyrazine-2-carboxamide], the IC50 at JAK3 was above 10000 nM; on BTK-WT it was at most 10 nM.
Take `C[C@@H]1[C@H](NC(=O)c2ccc(C3CC3)cc2F)CCCN1c1cnc(C(N)=O)c(Nc2ccc3cccnc3c2)n1` [Example D-124, 5-[(2R,3R)-3-(4-cyclopropyl-2-fluorobenzamido)-2-methylpiperidin-1-yl]-3-[(quinolin-7-yl)amino]pyrazine-2-carboxamide]: the IC50 on JAK3 was above 10000 nM; on BTK-WT it was 10 to 100 nM.
The matching figures for `C[C@@H]1CC[C@@H](NC(=O)c2ccc(C3CC3)cc2)CN1c1cnc(C(N)=O)c(Nc2cnn(C)c2)n1` [Example D-143, 5-[(2R,5R)-5-(4-cyclopropylbenzamido)-2-methylpiperidin-1-yl]-3-[(1-methyl-1H-pyrazol-4-yl)amino]pyrazine-2-carboxamide]: above 10000 nM and 10 to 100 nM.
For the compound `C[C@@H]1[C@H](NC(=O)c2ccc(C3CC3)cc2F)CCCN1c1cnc(C(N)=O)c(Nc2cc(CN(C)C)ns2)n1` [Example D-122, 5-[(2R,3R)-3-(4-cyclopropyl-2-fluorobenzamido)-2-methylpiperidin-1-yl]-3-({3-[(dimethylamino)methyl]-1,2-thiazol-5-yl}amino)pyrazine-2-carboxamide], the IC50 is 1000 to 10000 nM at JAK3 and at most 10 nM on BTK-WT.
The matching figures for `C[C@@H]1[C@H](NC(=O)c2ccc(C3CC3)cc2F)CCCN1c1cnc(C(N)=O)c(Nc2ccc(CN3CCN(C)CC3)cc2)n1` [Example D-113, 5-[(2R,3R)-3-(4-cyclopropyl-2-fluorobenzamido)-2-methylpiperidin-1-yl]-3-({4-[(4-methylpiperazin-1-yl)methyl]phenyl}amino)pyrazine-2-carboxamide]: 100 to 1000 nM and at most 10 nM.
With `C[C@H]1CC[C@H](NC(=O)c2ccc(C3CC3)cc2)CN1c1cnc(C(N)=O)c(Nc2cnn(C)c2)n1` [Example D-144, 5-[(2S,5S)-5-(4-cyclopropylbenzamido)-2-methylpiperidin-1-yl]-3-[(1-methyl-1H-pyrazol-4-yl)amino]pyrazine-2-carboxamide], the IC50 on JAK3 was above 10000 nM; on BTK-WT, 100 to 1000 nM.
For `C[C@@H]1[C@H](NC(=O)c2ccc(C3CC3)cc2F)CCCN1c1cnc(C(N)=O)c(Nc2ccc(N3CCN(C)CC3)cn2)n1` [Example D-8, 5-[(2R,3R)-3-(4-cyclopropyl-2-fluorobenzamido)-2-methylpiperidin-1-yl]-3-{[5-(4-methylpiperazin-1-yl)pyridin-2-yl]amino}pyrazine-2-carboxamide] the same measures were above 10000 nM and 10 to 100 nM.
In the case of `CN(C)c1ccc2c(=O)n([C@@H]3CCCN(c4cnc(C(N)=O)c(Nc5cnn(C)c5)n4)C3)ccc2c1` [Example D-155, 5-[(3R)-3-[6-(dimethylamino)-1-oxo-1,2-dihydroisoquinolin-2-yl]piperidin-1-yl]-3-[(1-methyl-1H-pyrazol-4-yl)amino]pyrazine-2-carboxamide], the IC50 at JAK3 was 100 to 1000 nM; at BTK-WT, at most 10 nM.
On to `C[C@@H]1[C@H](NC(=O)c2ccc(C3CC3)cc2F)CCCN1c1cnc(C(N)=O)c(Nc2ccc(C3(C)CCN(C4CCC4)CC3)cc2)n1` [Example D-134, 3-{[4-(1-cyclobutyl-4-methylpiperidin-4-yl)phenyl]amino}-5-[(2R,3R)-3-(4-cyclopropyl-2-fluorobenzamido)-2-methylpiperidin-1-yl]pyrazine-2-carboxamide], for which the values for the half-inhibitory concentration (IC50) at JAK3 and on BTK-WT were 100 to 1000 nM and at most 10 nM, respectively.
With `NC(=O)c1ncc(N2CCC[C@@H](n3ccc4cc(C5CC5)ccc4c3=O)C2)nc1Nc1ccc2ncccc2c1` [Example D-168, 5-[(3R)-3-(6-cyclopropyl-1-oxo-1,2-dihydroisoquinolin-2-yl)piperidin-1-yl]-3-[(quinolin-6-yl)amino]pyrazine-2-carboxamide], the values for the IC50 on JAK3 and on BTK-WT were above 10000 nM and 100 to 1000 nM, respectively.
With `C[C@@H]1[C@H](NC(=O)c2ccc(C3CC3)cc2F)CCCN1c1cnc(C(N)=O)c(Nc2ccc(S(C)(=O)=O)cc2)n1` [Example D-133, 5-[(2R,3R)-3-(4-cyclopropyl-2-fluorobenzamido)-2-methylpiperidin-1-yl]-3-[(4-methanesulfonylphenyl)amino]pyrazine-2-carboxamide], the IC50 on JAK3 is 1000 to 10000 nM; at BTK-WT, at most 10 nM.
For the compound `C[C@@H]1[C@H](NC(=O)c2ccc(C3CC3)cc2F)CCCN1c1cnc(C(N)=O)c(Nc2ccn(C)n2)n1` [Example D-129, 5-[(2R,3R)-3-(4-cyclopropyl-2-fluorobenzamido)-2-methylpiperidin-1-yl]-3-[(1-methyl-1H-pyrazol-3-yl)amino]pyrazine-2-carboxamide], the values for the IC50 on JAK3 and at BTK-WT were above 10000 nM and 100 to 1000 nM, respectively.
The matching figures for `C[C@@H]1[C@H](NC(=O)c2ccc(C3CC3)cc2F)CCCN1c1cnc(C(N)=O)c(Nc2ccc(C3(C)CCN(C4CC4)CC3)cc2)n1` [Example D-138, 5-[(2R,3R)-3-(4-cyclopropyl-2-fluorobenzamido)-2-methylpiperidin-1-yl]-3-{[4-(1-cyclopropyl-4-methylpiperidin-4-yl)phenyl]amino}pyrazine-2-carboxamide]: 10 to 100 nM and at most 10 nM.
For `C[C@@H]1CC[C@H](NC(=O)c2ccc(C3CC3)cc2)CN1c1cnc(C(N)=O)c(Nc2ccc(N3CCN(C)CC3)cc2)n1` [Example D-153, 5-[(2R,5S)-5-(4-cyclopropylbenzamido)-2-methylpiperidin-1-yl]-3-{[4-(4-methylpiperazin-1-yl)phenyl]amino}pyrazine-2-carboxamide] the same measures were 100 to 1000 nM and at most 10 nM.
